These results are taken from patent US7332279B2 (Glycozym APS, priority 1999, dated 2008).

Usually Vmax stands for the top rate of the reaction or transport when substrate is in excess. For orientation: Km means the substrate concentration at which the rate is half of its maximum.

Assay [1] has as its target T1, β3Gal-T5 (Homo sapiens, UniProt Q9Y2C3, M85T).
T1 construct: designed to exclude the hydrophobic transmembrane segment and to encode amino acid residues 25-310; secretion signal of vector pAcGP67B (gp67); made in house; host or cells: baculovirus; Sf9 cells (media) and High Five cells (serum-free medium, partially purified)
T1 sequence (Q9Y2C3 25-310 M85T): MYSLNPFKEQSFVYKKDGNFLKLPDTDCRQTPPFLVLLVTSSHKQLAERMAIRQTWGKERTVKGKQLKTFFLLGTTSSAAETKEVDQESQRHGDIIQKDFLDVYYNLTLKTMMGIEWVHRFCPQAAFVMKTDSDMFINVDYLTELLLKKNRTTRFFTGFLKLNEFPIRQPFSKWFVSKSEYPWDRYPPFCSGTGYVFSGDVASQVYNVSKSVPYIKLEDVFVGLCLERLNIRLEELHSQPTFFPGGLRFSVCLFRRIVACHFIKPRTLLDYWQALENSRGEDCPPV
Put plainly: Galactosyltransferase assay, partially purified secreted recombinant β3Gal-T5, saccharide acceptors. Type of assay: biochemical. The following applies: for β3Gal-T5 activity, substrate concentration 1 mM: acceptor 1 mM; for β3Gal-T5 activity, substrate concentration 5 mM: acceptor 5 mM; for donor substrate utilisation by β3Gal-T5: with the acceptor substrates tested (data not shown). From the text:
PCR product was cloned into the BamHI site of pAcGP67B (Pharmingen). […] This PCR product was cloned into the BamHI site of pVL1193 (Pharmingen). Both soluble and full length constructs were fully sequenced to confirm fidelity. Plasmids […]5-full were co-transfected with Baculo-GoldTM DNA (Pharmingen) as described previously (Bennett, […]. and Clausen, H. cDNA cloning and expression of a novel human UDP-N-acetyl-alpha-D-galactosamine. Polypeptide N-acetyl-galactosaminyl-transferase, GalNAc-T3. J. Biol. Chem. 271:17006-17012, 1996). Recombinant Baculo-virus were obtained after two successive amplifications in Sf9 cells grown in serum-containing medium, and titers of virus were estimated by titration in 24-well plates with monitoring of enzyme activities. […] J. Biol. […] J. Biol. […] Polypeptide N-acetyl-galactosaminyl-transferase, GalNAc-T3. J. Biol. Chem. 271:17006-17012, 1996). For large scale expression amplified virus was used to infect High FiveTM cells grown in serum-free media (Invitrogen) in upright roller bottles shaking at 140 rpm and 27° C. The kinetic properties were determined with partially purified, secreted forms of the enzymes. Semipurification of enzymes from serum-free medium of infected High-FiveTM cells was performed by sequential Amberlite, DEAE-Sephacel and 5-Sepharose chromatography as described previously ([…]., et al. […] J. Biol. Chem. 272:23503-23514, 1997). Comparisons of enzymes were performed relatively to the activity obtained with βGlcNAc-Bz1 (Tables II and III). Full length enzymes were assayed with 1% Triton CF54 homogenates of washed cells. […] Reaction products were quantified by Dowex-1 chromatography. […] P. and Clausen, H. […] J. Biol. Chem. 273:29295-29305, 1998). The transfer of Gal was evaluated after acid precipitation by filtration through Whatman GF/C glass fibre filters. […] Assays with glycolipid acceptors were conducted as previously described (Holmes, E. H. […] Arch Biochem Biophys 270:630-646, 1989) in reaction mixtures containing 2.5 μmol HEPES buffer, pH 7.2, μmol MnCl2, 100 μg taurodeoxycholate or Triton CF-54, 20 μg acceptor glycolipid, 15 nmol UDP-[^14C]-galactose (13,000 cpm/nmol) and enzyme in a total volume of 100 μl. Conditions for incubation and product isolation were as previously described (Id.).

The target of assay [2] is T1, β3Gal-T5. Put plainly: Galactosyltransferase assay with glycolipid acceptors, β3Gal-T5. The following applies: for β3Gal-T5 activity with glycolipid acceptor, Triton CF-54: 100 μg Triton CF-54/100 μl; for β3Gal-T5 activity with glycolipid acceptor, Triton CF-54 / β3Gal-T5 activity with glycolipid acceptor, TDOC: 20 μg glycolipid; for β3Gal-T5 activity with glycolipid acceptor, TDOC: 100 μg taurodeoxycholate/100 μl. Type of assay: biochemical. As for the experimental part:
The kinetic properties were determined with partially purified, secreted forms of the enzymes. Semipurification of enzymes from serum-free medium of infected High-Five™ cells was performed by sequential Amberlite, DEAE-Sephacel and 5-Sepharose chromatography as described previously (Wandall, H. H., Hassan, H., Mirgorodskaya, E., et al. Substrate specificities of three. members of the human UDP-N-acetyl-alpha-D-galactosamine:Polypeptide Nacetylgalactosaminyltransferase family, GalNAc-T1, -T2, and -T3. J. Biol. Chem. 272:23503-23514, 1997). Comparisons of enzymes were performed relatively to the activity obtained with βGlcNAc-Bz1 (Tables II and III). Full length enzymes were assayed with 1% Triton CF54 homogenates of washed cells. Enzyme assays were performed in 50 μl total reaction mixtures containing 25 mM Cacodylate (pH 7.5), 10 mM MnCl2, 0.25% Triton X-100, 100 μM UDP-[^14C]-Gal (2,600 cpm/nmol) (Amersham), and varying concentrations of acceptor substrates (Sigma) (see Table I for structures). Reaction products were quantified by Dowex-1 chromatography. […] The transfer of Gal was evaluated after acid precipitation by filtration through Whatman GF/C glass fibre filters. […] Assays with glycolipid acceptors were conducted as previously described (Holmes, E. H. Characterization and membrane organization of beta 1-3- and beta 1-4-galactosyltransferases from human colonic adenocarcinoma cell lines Cob 205 and SW403: basis for preferential synthesis of type 1 chain lacto-series carbohydrate structures. Arch Biochem Biophys 270:630-646, 1989) in reaction mixtures containing 2.5 μmol HEPES buffer, pH 7.2, μmol MnCl2, 100 μg taurodeoxycholate or Triton CF-54, 20 μg acceptor glycolipid, 15 nmol UDP-[^14C]-galactose (13,000 cpm/nmol) and enzyme in a total volume of 100 μl. Conditions for incubation and product isolation were as previously described (Id.).

Like-named read-outs stand apart in the source and are kept apart here.

Regarding `CC(=O)N[C@H]1[C@H](Oc2ccc3c(C)cc(=O)oc3c2)O[C@H](CO)[C@@H](O)[C@@H]1O` [β-D-GlcNAc-Me-umb], at β3Gal-T5 [1], the “β3Gal-T5 activity, substrate concentration 1 mM” value came out at 2.6 nmol/min/mL and the “β3Gal-T5 activity, substrate concentration 5 mM” value is 7.5 nmol/min/mL.

Regarding `Cc1cc(=O)oc2cc(O[C@@H]3O[C@H](CO)[C@@H](O)[C@H](O)[C@H]3O)ccc12` [β-D-Glc-Me-umb], at β3Gal-T5 [1], the “β3Gal-T5 activity, substrate concentration 1 mM” value came to 0.0 nmol/min/mL and the “β3Gal-T5 activity, substrate concentration 5 mM” value worked out at 0.0 nmol/min/mL.

Turning to `CC(=O)N[C@H]1[C@H](Oc2ccc([N+](=O)[O-])cc2)O[C@H](CO)[C@@H](O)[C@@H]1O` [β-D-GlcNAc-1-p-Nph], on β3Gal-T5 [1], the “β3Gal-T5 activity, substrate concentration 1 mM” value was 2.1 nmol/min/mL and the “β3Gal-T5 activity, substrate concentration 5 mM” value came out at 6.9 nmol/min/mL.

As for `CC(=O)NC1C(OC2C(OCC3OC(O)C(O)C(OC4OC(CO)C(O)C(O)C4OC4OC(CO)C(O)C(O)C4NC(C)=O)C3O)OC(CO)C(O)C2O)OC(CO)C(O)C1O` [β-D-GlcNAc-(1–2)-α-D-Man-(1–3)-[β-D-GlcNAc-(1–2)-α-D-Man-(1–6)-]D-Man], at β3Gal-T5 [1], the “β3Gal-T5 activity, substrate concentration 1 mM” value was found to be 0.0 nmol/min/mL and the “β3Gal-T5 activity, substrate concentration 5 mM” value is 0.0 nmol/min/mL.

Consider `CC(=O)N[C@H]1[C@H](Oc2ccc3c(C)cc(=O)oc3c2)O[C@H](CO)[C@H](O)[C@@H]1O` [β-D-GalNAc-Me-umb], for which, at β3Gal-T5 [1], the “β3Gal-T5 activity, substrate concentration 1 mM” value is 0.0 nmol/min/mL and the “β3Gal-T5 activity, substrate concentration 5 mM” value was found to be 0.0 nmol/min/mL.

As for `Cc1cc(=O)oc2cc(O[C@@H]3OC[C@@H](O[C@@H]4O[C@H](CO)[C@H](O)[C@H](O)[C@H]4O)[C@H](O)[C@H]3O)ccc12` [β-Gal-(1–4)-β-D-Xyl-1-Me-umb], at β3Gal-T5 [1], the “β3Gal-T5 activity, substrate concentration 1 mM” value was determined as 0.0 nmol/min/mL and the “β3Gal-T5 activity, substrate concentration 5 mM” value stood at 0.0 nmol/min/mL.

With `CC(=O)N[C@H]1[C@@H](OP(=O)(O)OP(=O)(O)OC[C@H]2O[C@@H](n3ccc(=O)[nH]c3=O)[C@H](O)[C@@H]2O)O[C@H](CO)[C@H](O)[C@@H]1O` [UDP-GalNAc], the “donor substrate utilisation by β3Gal-T5” value at β3Gal-T5 [1] is “did not utilize”.

Turning to `O=[N+]([O-])c1ccccc1O[C@@H]1O[C@H](CO)[C@H](O)[C@H](O)[C@H]1O` [β-D-Gal-1-o-Nph], on β3Gal-T5 [1], the “β3Gal-T5 activity, substrate concentration 1 mM” value came out at 0.0 nmol/min/mL and the “β3Gal-T5 activity, substrate concentration 5 mM” value came to 0.0 nmol/min/mL.

With `CC(=O)NC1C(OC2C(O)OC(CO)C(O)C2O)OC(CO)C(O)C1O` [β-D-GlcNAc-(1–2)-α-D-Man], on β3Gal-T5 [1], the “β3Gal-T5 activity, substrate concentration 1 mM” value was 0.0 nmol/min/mL and the “β3Gal-T5 activity, substrate concentration 5 mM” value turned out to be 3.0 nmol/min/mL.

In the case of `CC(=O)N[C@H]1[C@@H](OCc2ccccc2)O[C@H](CO)[C@H](O)[C@@H]1O` [α-D-GalNAc-Bzl], on β3Gal-T5 [1], the “β3Gal-T5 activity, substrate concentration 1 mM” value turned out to be 0.0 nmol/min/mL and the “β3Gal-T5 activity, substrate concentration 5 mM” value amounted to 0.0 nmol/min/mL.

As for `CC(=O)N[C@H]1[C@@H](OCc2ccccc2)O[C@H](CO)[C@@H](O)[C@@H]1O` [α-D-GlcNAc-Bzl], on β3Gal-T5 [1], the “β3Gal-T5 activity, substrate concentration 1 mM” value was found to be 0.0 nmol/min/mL and the “β3Gal-T5 activity, substrate concentration 5 mM” value came out at 0.0 nmol/min/mL.

As to GalNAcβ1-4Galβ1-4Glcβ1-Cer [Gg3], on β3Gal-T5 [2], the “β3Gal-T5 activity with glycolipid acceptor, Triton CF-54” value (“β3Gal-T5 activity … Triton CF-54” below) was found to be 0.005 µmol/h/mg and the “β3Gal-T5 activity with glycolipid acceptor, TDOC” value (“β3Gal-T5 activity … TDOC” below) amounted to 0.09 µmol/h/mg.

As for `COC1OC(COC2OC(CO)C(O)C(O)C2NC(C)=O)C(O)C(O)C1O` [β-D-GlcNAc-(1–6)-α-D-Man-1-Me], at β3Gal-T5 [1], the “β3Gal-T5 activity, substrate concentration 1 mM” value was found to be 4.0 nmol/min/mL and the “β3Gal-T5 activity, substrate concentration 5 mM” value worked out at 13.0 nmol/min/mL.

As for `CO[C@@H]1O[C@H](CO)[C@H](O)[C@H](O[C@@H]2O[C@H](CO)[C@@H](O)[C@H](O)[C@H]2NC(C)=O)[C@H]1O` [β-D-GlcNAc-(1–3)-β-D-Gal-1-Me], the Vmax at β3Gal-T5 [1] (Table V) was 972.9 pmol/min. On β3Gal-T5 [1] (Table V, read-out: Km), the Km stood at 1800 µM. On β3Gal-T5 [1], the “β3Gal-T5 activity, substrate concentration 1 mM” value is 27.4 nmol/min/mL and the “β3Gal-T5 activity, substrate concentration 5 mM” value turned out to be 87.4 nmol/min/mL. The Km on β3Gal-T5 [1] (acceptor substrate, read-out: apparent Km of β3Gal-T5) amounted to 1800 µM.

“GlcNAcβ1-3Galβ1-4G1cNAcβ1-3Galβ1-4Glcβ1-Cer [nLC5]”: on β3Gal-T5 [2], the “activity, fold lower than with Lc3” value is listed as ~3 fold; the “β3Gal-T5 activity … Triton CF-54” value stood at 0.4 µmol/h/mg; the “β3Gal-T5 activity … TDOC” value was 1.6 µmol/h/mg.

In the case of `CC(=O)N[C@@H]1[C@@H](O)[C@H](O)[C@@H](CO)O[C@H]1Sc1ccc([N+](=O)[O-])cc1` [β-D-GlcNAc-1-thio-p-Nph], at β3Gal-T5 [1], the “β3Gal-T5 activity, substrate concentration 1 mM” value amounted to 1.1 nmol/min/mL and the “β3Gal-T5 activity, substrate concentration 5 mM” value turned out to be 3.4 nmol/min/mL.

Take GalNAcβ1-3Galα1-4Galβ1-4Glcβ1-Cer [Gβ4]: on β3Gal-T5 [2], the “β3Gal-T5 activity … Triton CF-54” value was 0.09 µmol/h/mg and the “β3Gal-T5 activity … TDOC” value is 0.6 µmol/h/mg.

For the compound `O=[N+]([O-])c1ccccc1O[C@H]1O[C@H](CO)[C@H](O)[C@H](O)[C@H]1O` [α-D-Gal-1-o-Nph], on β3Gal-T5 [1], the “β3Gal-T5 activity, substrate concentration 1 mM” value came to 0.0 nmol/min/mL and the “β3Gal-T5 activity, substrate concentration 5 mM” value is 0.0 nmol/min/mL.

For the compound `CC(=O)N[C@@H]1[C@@H](O)[C@H](O)[C@@H](CO)O[C@@H]1O` [D-GIcNAc], on β3Gal-T5 [1], the “β3Gal-T5 activity, substrate concentration 1 mM” value came out at 0.5 nmol/min/mL and the “β3Gal-T5 activity, substrate concentration 5 mM” value worked out at 1.2 nmol/min/mL.

Regarding Glcβ1-Cer [GlcCer], the “β3Gal-T5 activity … TDOC” value on β3Gal-T5 [2] was 0.04 µmol/h/mg.

Regarding `CC(=O)N[C@H]1[C@@H](OP(=O)(O)OP(=O)(O)OC[C@H]2O[C@@H](n3ccc(=O)[nH]c3=O)[C@H](O)[C@@H]2O)O[C@H](CO)[C@@H](O)[C@@H]1O` [UDPGlcNAc], the “donor substrate utilisation by β3Gal-T5” value on β3Gal-T5 [1] is reported as “did not utilize”.
